Reference: ChEMBL document CHEMBL5465560, “Selectivity Literature for EUbOPEN Chemogenomic Library” (2024)
Each block holds one molecule with its values, some of them ahead of it.

Key:
[1] = molecular target: Tyrosine-protein kinase JAK2 (Homo sapiens, UniProt O60674); assay: Selectivity interaction (KinomeScan (DiscoverX)) EUB0001049a JAK2; settings: at 1 µM
[2] = molecular target: Ephrin type-A receptor 7 (Homo sapiens) (UniProt Q15375); assay: Selectivity interaction (ActivX KiNativ screen (kinase selectivity in THP-1 cell lysates)) EUB0000639a EPHA7; format: subcellular; settings: lysate
Ephrin type-A receptor 7 (Homo sapiens), sequence (Q15375 28-998 limits assumed): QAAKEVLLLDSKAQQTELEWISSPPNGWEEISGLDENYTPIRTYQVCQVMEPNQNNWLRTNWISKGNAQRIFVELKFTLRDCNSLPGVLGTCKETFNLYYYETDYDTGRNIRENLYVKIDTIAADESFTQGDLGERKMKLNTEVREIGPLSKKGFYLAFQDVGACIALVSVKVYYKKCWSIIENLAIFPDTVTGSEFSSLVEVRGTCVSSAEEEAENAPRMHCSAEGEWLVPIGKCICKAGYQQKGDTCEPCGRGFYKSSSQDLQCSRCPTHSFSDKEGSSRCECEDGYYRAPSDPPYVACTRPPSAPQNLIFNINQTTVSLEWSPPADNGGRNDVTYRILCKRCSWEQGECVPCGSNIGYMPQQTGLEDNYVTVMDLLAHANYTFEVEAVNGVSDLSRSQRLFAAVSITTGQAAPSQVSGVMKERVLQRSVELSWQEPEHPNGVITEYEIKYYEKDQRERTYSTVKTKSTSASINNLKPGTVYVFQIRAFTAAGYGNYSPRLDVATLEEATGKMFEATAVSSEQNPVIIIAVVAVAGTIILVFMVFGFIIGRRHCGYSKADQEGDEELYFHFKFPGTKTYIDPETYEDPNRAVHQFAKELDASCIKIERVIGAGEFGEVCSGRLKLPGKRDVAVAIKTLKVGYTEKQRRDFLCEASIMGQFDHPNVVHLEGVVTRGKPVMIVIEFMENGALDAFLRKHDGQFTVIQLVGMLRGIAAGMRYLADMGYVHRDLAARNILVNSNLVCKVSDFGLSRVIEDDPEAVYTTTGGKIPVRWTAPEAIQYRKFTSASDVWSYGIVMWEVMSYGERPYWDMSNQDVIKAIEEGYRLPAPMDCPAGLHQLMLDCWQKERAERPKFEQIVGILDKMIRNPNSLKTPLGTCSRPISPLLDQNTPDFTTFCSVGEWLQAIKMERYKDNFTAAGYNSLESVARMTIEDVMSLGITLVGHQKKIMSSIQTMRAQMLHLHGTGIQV

[3] = molecular target: Histone-lysine N-methyltransferase, H3 lysine-36 specific (Homo sapiens) (UniProt Q96L73); assay: Selectivity interaction (Methyltransferase screen (radiometric assays, panel of 8 PRMTs, 21 protein lysine methyltransferases, 3 DNA methyltransferases, and one RNA methyltransferase)) EUB0000272b NSD1
Histone-lysine N-methyltransferase, H3 lysine-36 specific (Homo sapiens), sequence (Q96L73 whole entry): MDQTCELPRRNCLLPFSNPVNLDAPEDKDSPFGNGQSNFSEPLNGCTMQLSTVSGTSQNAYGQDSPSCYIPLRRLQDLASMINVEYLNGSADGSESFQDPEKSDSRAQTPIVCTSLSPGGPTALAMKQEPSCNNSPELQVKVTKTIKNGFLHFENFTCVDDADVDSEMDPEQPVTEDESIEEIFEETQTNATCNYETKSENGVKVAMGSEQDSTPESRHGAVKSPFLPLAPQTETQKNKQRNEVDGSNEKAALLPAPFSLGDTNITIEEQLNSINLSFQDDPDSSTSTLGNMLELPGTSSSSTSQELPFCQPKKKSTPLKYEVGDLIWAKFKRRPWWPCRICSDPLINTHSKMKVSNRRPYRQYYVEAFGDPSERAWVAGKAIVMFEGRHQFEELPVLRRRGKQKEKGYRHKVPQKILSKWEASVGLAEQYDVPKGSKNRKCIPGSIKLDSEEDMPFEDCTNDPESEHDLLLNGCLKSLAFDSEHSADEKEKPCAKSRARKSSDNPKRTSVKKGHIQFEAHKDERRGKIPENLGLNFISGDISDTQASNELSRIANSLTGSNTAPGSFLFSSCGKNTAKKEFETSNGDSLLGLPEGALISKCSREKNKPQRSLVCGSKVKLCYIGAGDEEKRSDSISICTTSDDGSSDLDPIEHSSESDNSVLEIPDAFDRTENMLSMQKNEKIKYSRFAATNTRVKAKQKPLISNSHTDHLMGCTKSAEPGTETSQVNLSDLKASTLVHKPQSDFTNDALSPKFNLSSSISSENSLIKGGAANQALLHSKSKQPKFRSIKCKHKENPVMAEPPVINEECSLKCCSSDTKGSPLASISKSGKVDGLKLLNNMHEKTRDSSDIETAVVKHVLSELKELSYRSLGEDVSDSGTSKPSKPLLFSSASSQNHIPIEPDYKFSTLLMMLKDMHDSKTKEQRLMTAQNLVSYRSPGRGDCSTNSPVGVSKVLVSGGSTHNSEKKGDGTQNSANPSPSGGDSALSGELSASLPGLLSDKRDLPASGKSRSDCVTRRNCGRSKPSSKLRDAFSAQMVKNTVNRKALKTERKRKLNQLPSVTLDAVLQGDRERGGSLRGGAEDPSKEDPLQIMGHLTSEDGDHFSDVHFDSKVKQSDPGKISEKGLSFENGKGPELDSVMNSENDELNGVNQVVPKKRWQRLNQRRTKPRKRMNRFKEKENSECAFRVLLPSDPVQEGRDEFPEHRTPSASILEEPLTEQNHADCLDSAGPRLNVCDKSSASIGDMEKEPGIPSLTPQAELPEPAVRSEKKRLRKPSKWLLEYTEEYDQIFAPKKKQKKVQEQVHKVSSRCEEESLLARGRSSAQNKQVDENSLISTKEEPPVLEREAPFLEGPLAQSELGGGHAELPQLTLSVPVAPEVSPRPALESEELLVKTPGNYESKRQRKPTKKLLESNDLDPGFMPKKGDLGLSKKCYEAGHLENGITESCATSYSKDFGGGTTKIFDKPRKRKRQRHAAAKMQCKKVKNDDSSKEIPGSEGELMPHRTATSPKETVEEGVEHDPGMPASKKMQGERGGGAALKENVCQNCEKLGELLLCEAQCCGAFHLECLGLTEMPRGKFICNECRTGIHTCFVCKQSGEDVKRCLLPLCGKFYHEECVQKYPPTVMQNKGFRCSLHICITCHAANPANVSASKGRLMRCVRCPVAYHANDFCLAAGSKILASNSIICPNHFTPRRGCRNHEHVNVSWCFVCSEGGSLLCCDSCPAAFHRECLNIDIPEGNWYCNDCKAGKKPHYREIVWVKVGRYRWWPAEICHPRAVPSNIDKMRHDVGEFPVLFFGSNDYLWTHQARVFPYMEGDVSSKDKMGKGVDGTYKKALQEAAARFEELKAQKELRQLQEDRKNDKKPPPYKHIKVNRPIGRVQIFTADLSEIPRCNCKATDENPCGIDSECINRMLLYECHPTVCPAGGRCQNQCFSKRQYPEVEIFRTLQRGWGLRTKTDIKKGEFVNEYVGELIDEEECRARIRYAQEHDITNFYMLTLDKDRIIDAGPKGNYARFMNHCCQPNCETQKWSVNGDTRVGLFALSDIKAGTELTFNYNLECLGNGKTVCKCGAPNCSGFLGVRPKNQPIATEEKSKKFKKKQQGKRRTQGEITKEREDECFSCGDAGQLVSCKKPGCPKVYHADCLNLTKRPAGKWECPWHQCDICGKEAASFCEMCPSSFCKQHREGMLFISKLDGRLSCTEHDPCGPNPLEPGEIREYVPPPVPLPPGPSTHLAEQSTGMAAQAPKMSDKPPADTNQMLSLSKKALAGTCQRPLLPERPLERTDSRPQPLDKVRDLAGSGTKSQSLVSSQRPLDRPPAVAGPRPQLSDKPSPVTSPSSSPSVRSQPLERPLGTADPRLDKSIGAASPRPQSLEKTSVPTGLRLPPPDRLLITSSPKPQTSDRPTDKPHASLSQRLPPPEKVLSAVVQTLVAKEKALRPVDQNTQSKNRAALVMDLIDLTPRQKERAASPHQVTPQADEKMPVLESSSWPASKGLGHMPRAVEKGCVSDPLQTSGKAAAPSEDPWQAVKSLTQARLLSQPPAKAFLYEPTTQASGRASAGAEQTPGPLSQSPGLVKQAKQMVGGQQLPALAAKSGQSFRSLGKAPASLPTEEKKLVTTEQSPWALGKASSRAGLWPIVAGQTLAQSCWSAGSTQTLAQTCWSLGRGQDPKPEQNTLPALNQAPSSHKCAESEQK

[4] = molecular target: Dual specificity protein kinase CLK2 (Homo sapiens, UniProt P49760); assay: Selectivity interaction (KinomeScan (DiscoverX)) EUB0000229b CLK2; settings: at 10 µM
Dual specificity protein kinase CLK2, sequence (P49760 whole entry, looked up): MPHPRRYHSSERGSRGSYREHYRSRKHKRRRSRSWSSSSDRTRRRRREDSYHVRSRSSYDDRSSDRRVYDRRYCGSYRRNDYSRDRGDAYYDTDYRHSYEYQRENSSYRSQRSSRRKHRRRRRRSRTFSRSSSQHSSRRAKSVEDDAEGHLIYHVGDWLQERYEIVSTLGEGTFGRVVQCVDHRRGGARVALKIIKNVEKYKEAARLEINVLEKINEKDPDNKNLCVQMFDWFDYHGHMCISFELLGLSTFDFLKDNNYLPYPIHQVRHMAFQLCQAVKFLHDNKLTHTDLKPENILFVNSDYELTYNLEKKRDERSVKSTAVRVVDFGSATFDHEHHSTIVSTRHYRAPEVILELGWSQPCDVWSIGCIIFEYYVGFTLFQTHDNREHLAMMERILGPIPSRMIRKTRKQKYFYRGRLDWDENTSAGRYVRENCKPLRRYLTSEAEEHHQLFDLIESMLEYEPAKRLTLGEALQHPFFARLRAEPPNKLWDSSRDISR

[5] = tested on: Mast/stem cell growth factor receptor Kit (Homo sapiens), P10721 [A829P]; assay: (§1) Selectivity interaction (KinomeScan (DiscoverX)) EUB0001079a KIT; settings: at 1 µM
[6] = tested on: Mast/stem cell growth factor receptor Kit (Homo sapiens), P10721 [D816H]; assay: as §1; settings: at 1 µM
[7] = tested on: Mast/stem cell growth factor receptor Kit (Homo sapiens), P10721 [D816V]; assay: as §1; settings: at 1 µM
[8] = tested on: Mast/stem cell growth factor receptor Kit (Homo sapiens), P10721 [L576P]; assay: as §1; settings: at 1 µM
[9] = tested on: Mast/stem cell growth factor receptor Kit (Homo sapiens), P10721 [V559D,T670I]; assay: as §1; settings: at 1 µM
[10] = tested on: Mast/stem cell growth factor receptor Kit (Homo sapiens), P10721 [V559D,V654A]; assay: as §1; settings: at 1 µM
[11] = tested on: Mast/stem cell growth factor receptor Kit (Homo sapiens), P10721 [V559D]; assay: as §1; settings: at 1 µM
[12] = molecular target: Mast/stem cell growth factor receptor Kit (Homo sapiens, UniProt P10721); assay: as §1; settings: at 1 µM
Mast/stem cell growth factor receptor Kit, sequence (P10721 whole entry): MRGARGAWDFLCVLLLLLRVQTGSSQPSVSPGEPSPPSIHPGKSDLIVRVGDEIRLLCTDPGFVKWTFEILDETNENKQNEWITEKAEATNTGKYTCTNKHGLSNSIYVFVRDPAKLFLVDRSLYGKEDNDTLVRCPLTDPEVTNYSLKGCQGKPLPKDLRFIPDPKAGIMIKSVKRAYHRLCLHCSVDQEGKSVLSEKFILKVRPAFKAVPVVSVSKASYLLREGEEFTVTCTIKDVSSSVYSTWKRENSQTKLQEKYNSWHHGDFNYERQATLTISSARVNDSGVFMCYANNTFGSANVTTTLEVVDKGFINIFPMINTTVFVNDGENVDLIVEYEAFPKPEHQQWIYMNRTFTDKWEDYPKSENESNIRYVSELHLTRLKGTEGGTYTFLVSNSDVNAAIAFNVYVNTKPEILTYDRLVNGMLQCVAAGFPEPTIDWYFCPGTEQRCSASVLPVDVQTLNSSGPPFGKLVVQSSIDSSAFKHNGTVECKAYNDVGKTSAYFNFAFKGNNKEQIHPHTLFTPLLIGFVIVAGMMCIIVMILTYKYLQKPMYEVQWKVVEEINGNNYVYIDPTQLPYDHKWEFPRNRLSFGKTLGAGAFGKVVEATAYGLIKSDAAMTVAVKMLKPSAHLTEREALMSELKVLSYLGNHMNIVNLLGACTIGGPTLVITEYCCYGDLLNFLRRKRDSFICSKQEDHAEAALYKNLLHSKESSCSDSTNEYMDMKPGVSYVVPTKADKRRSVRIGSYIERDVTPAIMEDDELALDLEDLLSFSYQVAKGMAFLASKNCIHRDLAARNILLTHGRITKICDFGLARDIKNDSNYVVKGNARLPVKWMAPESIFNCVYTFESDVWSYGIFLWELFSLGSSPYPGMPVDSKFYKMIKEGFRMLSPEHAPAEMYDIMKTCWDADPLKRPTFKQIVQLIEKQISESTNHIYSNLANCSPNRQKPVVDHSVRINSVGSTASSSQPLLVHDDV

[13] = molecular target: T1, Atypical kinase COQ8B, mitochondrial (Homo sapiens) (UniProt Q96D53); assay: Selectivity interaction (KinomeScan (DiscoverX)) EUB0000092b ADCK4; settings: at 10 µM
T1 sequence (whole entry): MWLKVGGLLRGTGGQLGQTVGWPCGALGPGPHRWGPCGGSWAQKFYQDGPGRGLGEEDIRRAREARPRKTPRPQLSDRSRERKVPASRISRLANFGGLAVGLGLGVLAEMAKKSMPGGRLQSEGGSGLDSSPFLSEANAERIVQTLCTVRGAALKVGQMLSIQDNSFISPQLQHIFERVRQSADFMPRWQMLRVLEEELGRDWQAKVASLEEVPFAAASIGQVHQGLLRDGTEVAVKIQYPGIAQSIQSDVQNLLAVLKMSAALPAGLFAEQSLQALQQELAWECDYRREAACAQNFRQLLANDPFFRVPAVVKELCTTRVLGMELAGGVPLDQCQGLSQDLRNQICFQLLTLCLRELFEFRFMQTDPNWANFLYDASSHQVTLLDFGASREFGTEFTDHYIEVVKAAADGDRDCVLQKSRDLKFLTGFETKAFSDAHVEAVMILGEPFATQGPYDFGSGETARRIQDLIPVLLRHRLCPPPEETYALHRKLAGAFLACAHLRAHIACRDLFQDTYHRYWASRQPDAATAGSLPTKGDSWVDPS

[14] = molecular target: T2, Phosphorylase b kinase gamma catalytic chain, liver/testis isoform (Homo sapiens) (UniProt P15735); assay: Selectivity interaction (KinomeScan (DiscoverX)) EUB0001619a PHKG2; settings: at 1 µM
T2 sequence (whole entry): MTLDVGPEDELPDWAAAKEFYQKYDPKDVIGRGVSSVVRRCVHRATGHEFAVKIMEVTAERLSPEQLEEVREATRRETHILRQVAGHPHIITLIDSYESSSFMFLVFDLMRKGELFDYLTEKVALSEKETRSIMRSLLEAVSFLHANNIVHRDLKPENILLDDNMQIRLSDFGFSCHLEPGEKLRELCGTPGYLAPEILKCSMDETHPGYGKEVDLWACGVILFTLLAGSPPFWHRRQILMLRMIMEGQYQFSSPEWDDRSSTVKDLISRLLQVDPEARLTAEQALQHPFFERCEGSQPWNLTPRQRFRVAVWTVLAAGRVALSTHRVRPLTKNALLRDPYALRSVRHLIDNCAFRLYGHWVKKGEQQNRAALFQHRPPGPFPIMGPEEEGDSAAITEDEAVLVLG

[15] = molecular target: T3, Ephrin type-B receptor 3 (Homo sapiens) (UniProt P54753); assay: Selectivity interaction (KinomeScan (DiscoverX)) EUB0000666a EPHB3; settings: at 10 µM
T3 sequence (whole entry): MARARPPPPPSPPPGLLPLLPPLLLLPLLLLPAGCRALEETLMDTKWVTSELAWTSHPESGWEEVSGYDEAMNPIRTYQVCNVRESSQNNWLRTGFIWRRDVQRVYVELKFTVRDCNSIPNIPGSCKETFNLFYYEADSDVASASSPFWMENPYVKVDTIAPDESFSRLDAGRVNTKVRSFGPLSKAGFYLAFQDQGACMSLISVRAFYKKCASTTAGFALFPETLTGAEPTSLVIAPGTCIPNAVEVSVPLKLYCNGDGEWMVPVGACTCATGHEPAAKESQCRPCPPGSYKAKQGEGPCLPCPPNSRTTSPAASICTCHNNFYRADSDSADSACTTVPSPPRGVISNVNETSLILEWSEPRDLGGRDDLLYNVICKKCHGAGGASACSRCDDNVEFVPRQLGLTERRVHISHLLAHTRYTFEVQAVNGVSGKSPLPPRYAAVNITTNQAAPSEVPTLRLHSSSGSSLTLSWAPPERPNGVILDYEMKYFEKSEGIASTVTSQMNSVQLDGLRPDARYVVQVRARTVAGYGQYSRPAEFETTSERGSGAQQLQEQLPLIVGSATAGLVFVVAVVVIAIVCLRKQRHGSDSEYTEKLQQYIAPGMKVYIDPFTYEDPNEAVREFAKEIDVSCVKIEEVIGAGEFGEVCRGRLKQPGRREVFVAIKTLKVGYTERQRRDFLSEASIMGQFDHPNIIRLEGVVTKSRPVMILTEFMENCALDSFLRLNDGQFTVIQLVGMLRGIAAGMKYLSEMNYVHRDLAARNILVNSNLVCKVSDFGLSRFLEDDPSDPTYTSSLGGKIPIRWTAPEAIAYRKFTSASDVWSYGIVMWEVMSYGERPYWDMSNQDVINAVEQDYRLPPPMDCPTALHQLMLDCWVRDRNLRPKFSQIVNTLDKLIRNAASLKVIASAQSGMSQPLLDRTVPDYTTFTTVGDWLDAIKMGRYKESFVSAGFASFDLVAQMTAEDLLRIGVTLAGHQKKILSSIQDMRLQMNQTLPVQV

SMILES: COc1cc(Nc2nc(C)cc(-c3cnn4nc(OC)ccc34)n2)cc(C(F)(F)F)c1
% of control [1]: 85%

% of inhibition ([2]; at 0.01 µM): -8.6% | % of inhibition ([2]; at 0.04 µM): 21.7% | % of inhibition ([2]; at 0.2 µM): 20.8% | % of inhibition ([2]; at 1 µM): -6.5% | % of inhibition ([2]; at 5 µM): 20.6%
SMILES: CC[C@@H]1[C@H](F)C(=O)N[C@@H]1COc1nccc2cc(C(N)=O)c(OC)cc12 [ZIMLOVISERTIB]

% of activity ([3]; at 1 µM): 100% | % of activity ([3]; at 10 µM): 102%
SMILES: Cc1cc(C)cc([C@H]2c3cc(C)ccc3NC(=O)CN2C(=O)c2ccc(Br)s2)c1

SMILES: COc1cc(N(C)c2ccnc3ccc(C(F)(F)F)cc23)cc(OC)c1OC
% binding [4]: 85%

SMILES: Nc1cnc(N2CCc3cc(S(=O)(=O)Nc4c(F)cc(Cl)cc4F)cc(N4CCCC4=O)c32)nc1 [TP-020n]
% of control [5]: 100% | % of control [6]: 100% | % of control [7]: 100% | % of control [8]: 83% | % of control [9]: 100% | % of control [10]: 100% | % of control [11]: 100% | % of control [12]: 100%

SMILES: CCC(=O)N1CCN(c2ccc(-n3c(=O)ccc4cnc5ccc(-c6cnc7ccccc7c6)cc5c43)cc2C(F)(F)F)CC1
% of control [13]: 15%

SMILES: N#Cc1cccc(-c2c[nH]c3ncnc(N4CCOCC4)c23)c1
% of control [14]: 40%

SMILES: O=C(NOC[C@H](O)CO)c1ccc(F)c(F)c1Nc1ccc(I)cc1F
% of control [15]: 89%
